Converted amounts (≈) assume the structure as drawn. Like-named read-outs stand apart in the source and are kept apart here.
Key:
[1] = biological target: T1, MRSA PK (Staphylococcus aureus, UniProt Q6GG09); experiment: MRSA PK activity, continuous LDH-coupled assay; assay type: biochemical, S. aureus (MRSA strain Sanger 252); conditions: for inhibition at 10 µM: read-out: % inhibition at the highest concentration tested (IC50)
T1 construct: His tag (pET-28a(+) vector) (N); made in house; host or cells: E. coli BL-21 (DE3)
Source text: Genomic DNA of MRSA strain Sanger 252 extracted using DNeasy Tissue Kit™ (Qiagen™) was used as a template to generate the His-tagged MRSA PK. Human cDNA from MCF-7 breast cancer cell line (courtesy of Dr. J Wong, BC Cancer Research Center (Vancouver, Canada) was used as a template to generate the full-length human M2 PK enzyme. The following primer sets were used creating appropriate restriction sites (NdeI and XhoI sites underlined): For cloning of MRSA PK: M27F 5′-[…]-3′ and M27R 5′-[…]-3′, for cloning of human M2 PK isoform: hM2F 5′-[…]-3′ and hM2R 5′-[…]-3′. The resulting PCR fragments for each construct were cloned into the NdeI and XhoI unique sites of the bacterial expression vector pET-28a (+) (Novagen™). […] The sequence and the correct reading frame of all constructs were verified by sequencing. Human M1, R and L PK constructs in pET-28-a(+) vectors (courtesy of Dr. L. Cantley, Harvard Medical, School (Boston, USA)) were used to generate relevant recombinant His-tagged human PK isoforms.
MRSA and human constructs in pET-28a(+) were used to express relevant recombinant PK proteins in E. coli BL-21 (DE3). The proteins were expressed and purified using Ni-NTA agarose (Qiagen™) according to the manufacturer's protocol. Briefly, cells were grown to an absorbance of 0.4-0.5 at 600 nm in 2×YT medium, then induced with 0.1 mM IPTG for 3 h at 20° C. Cells were lysed by sonication on ice (3×10-s bursts with a 30-s recovery between bursts) in lysis buffer (0.2 mg/ml lysozyme, 50 mM Tris pH 7.5, 10 mM MgCl2, 200 mM NaCl, 100 mM KCl, 10% glycerol, 10 mM imidazole, 0.5% NP-40 and 1 mM DTT containing Complete™ protease inhibitor). Cell lysates were cleared by centrifugation (18,000×g in a Beckman™ JA-20 rotor) for 20 min at 4° C. and PK isoforms were purified by batch binding to Ni-NTA resin. The resins were then packed in columns (1×2 cm) and washed with 400 column volumes lysis buffer containing 30 mM imidazole. His-tagged PK isoforms were eluted with the same buffer containing 300 mM imidazole. The proteins were dialyzed overnight at 4° C. against 2000 volumes of ice-cold 30 mM Tris pH 7.5, 25 mM KCl, 5 mM MgCl2, 10% glycerol and 1 mM DTT to remove imidazole. All purification steps were done at 4° C.; enzymes were flash-frozen and stored at −70° C. […] Purity and physical integrity of proteins were assessed using SDS-polyacrylamide gel electrophoresis (SDS-PAGE) followed by coomassie blue staining. Protein concentration was estimated by Bradford assay (Bio-Rad Protein Assay™) using bovine serum albumin as a standard.
Candidate MRSA PK inhibitors were assayed for their ability to inhibit enzymatic activities of MRSA and human PKs. PK activity was determined using a continuous assay coupled to lactate dehydrogenase (LDH) in which the change in absorbance at 340 nm owing to oxidation of NADH was measured using a Benchmark Plus™ microplate spectrophotometer (Bio-Rad Laboratories, Hercules, Calif.). […] Reactions were initiated by the addition of 15 nM of one of the PK enzymes. PK activity proportional to the rate of change at 340 nm was expressed as specific activity (μmol/min/mg), which is defined as the amount of PK that catalyzes the formation of one micromole of either product per minute. Inhibitors were dissolved in DMSO with the final concentration of the solvent never exceeding 1% of the assay volume. IC50 values were calculated by curve fitting on a four-parameter dose-response model with variable slope using Graphpad Prism 5.0™ (GraphPad™ Software Inc., La Jolla, Calif.). […] Reactions were performed at 30° C. for up to 5 min. All values determined represent at least two measurements, in triplicate (Tables 1-6) or duplicate unless mentioned otherwise.

[2] = test system: S. aureus ATCC 29213; experiment: In vitro susceptibility, broth microdilution MIC; assay type: cell-based, Staphylococcus aureus; conditions: Staphylococcus aureus, ATCC29213, Tables 1-6 and text; minimum concentration to give >98% inhibition of growth; read-out: MIC
Description: The antimicrobial activities of PK inhibitor candidates were determined using the 96-well microtiter standard 2-fold serial broth microdilution method as described by CLSI (formerly NCCLS) with the various gram-positive and gram-negative bacteria species mentioned above. Bacteria from a single colony were grown, overnight in either BHI Broth (VRE), mueller hinton broth (S. aureus 29213; MRSA USA400) or L-broth (E. coli, P. aeruginosa, S. typhimuriu, K. Pneumonia and A. baumannii). […] Culture plates were incubated for 18-24 h at 37° C., and optical density at 600 nm (OD600) was measured using a Benchmark Plus™ microplate spectrophotometer (Bio-Rad™). The absorbance control values for the series containing CAMHB and inhibitor were subtracted as background from the corresponding infected wells. The MIC was defined as the lowest concentration of test compound leading to complete inhibition of cell growth in relationship to compound-free control wells as determined by optical density. […] All assays were run in triplicate (Tables 1-6) or duplicate. Experiments were replicated at least twice to verify reproducibility using the above conditions.

[3] = Tables 1-6, 2 mM ADP, 10 mM PEP, 15 nM PK, read-out: IC50

T1 sequence (Q6GG09 whole entry): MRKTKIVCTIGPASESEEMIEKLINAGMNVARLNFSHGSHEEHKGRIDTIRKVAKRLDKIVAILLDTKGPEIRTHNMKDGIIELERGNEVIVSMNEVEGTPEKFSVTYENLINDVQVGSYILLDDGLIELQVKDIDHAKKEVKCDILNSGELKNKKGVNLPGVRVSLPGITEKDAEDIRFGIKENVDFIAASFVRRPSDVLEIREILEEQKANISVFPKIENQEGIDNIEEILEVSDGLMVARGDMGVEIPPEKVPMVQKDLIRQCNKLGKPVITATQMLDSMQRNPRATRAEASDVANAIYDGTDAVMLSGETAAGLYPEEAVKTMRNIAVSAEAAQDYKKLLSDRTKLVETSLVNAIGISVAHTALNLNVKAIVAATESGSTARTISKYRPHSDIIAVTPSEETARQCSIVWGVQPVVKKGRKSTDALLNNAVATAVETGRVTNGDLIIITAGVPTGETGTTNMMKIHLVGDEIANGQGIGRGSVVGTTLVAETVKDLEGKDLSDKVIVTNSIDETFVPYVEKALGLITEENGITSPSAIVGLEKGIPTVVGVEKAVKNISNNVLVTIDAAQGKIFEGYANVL

Structure (SMILES) | IC50 [1] [nM] | other results
Brc1ccc2[nH]c(-c3cc4ccccc4[nH]3)cc2c1 [Compound 10h, 5-Bromo-1H,1′H-2,2′-biindole] | – | inhibition at 10 µM [1]: 36%
Brc1ccc2[nH]c(-c3cc4cc(Br)c(Br)cc4[nH]3)cc2c1 [Compound 10m, 5,5′,6-Tribromo-1H,1′H-2,2′-biindole] | – | MIC [2]: 1 µg/mL (≈ 2.13 µM); IC50 [1, 3]: 1.6 nM
Brc1ccc2cc(C#Cc3cc4ccc(Br)cc4[nH]3)[nH]c2c1 [Compound 25b, 1,2-Bis(6-bromo-1H-indol-2-yl)ethyne] | – | MIC [2]: > 64 µg/mL; IC50 [1, 3]: 2.4 nM
Cn1c(C#Cc2cc3ccc(Br)cc3[nH]2)cc2ccc(Br)cc21 [Compound 26a, 6-bromo-2-((6-bromo-1H-indol-2-yl)ethynyl)-1-methyl-1H-indole] | – | MIC [2]: > 64 µg/mL; IC50 [1, 3]: 13.7 nM
Cn1c(C#Cc2cc3ccc(Br)cc3n2C)cc2ccc(Br)cc21 [Compound 26b, 1,2-bis(6-bromo-1-methyl-1H-indol-2-yl)ethyne] | – | inhibition at 10 µM [1]: 27%
Brc1ccc2cc(/C=C/c3cc4ccc(Br)cc4[nH]3)[nH]c2c1 [Compound 27b, (E)-1,2-bis(6-bromo-1H-indol-2-yl)ethane] | – | MIC [2]: > 64 µg/mL; IC50 [1, 3]: 3.9 nM
Brc1ccc2[nH]c(/C=C/c3cc4ccc(Br)cc4[nH]3)cc2c1 [Compound 27c, (E)-6-bromo-2-(2-(5-bromo-1H-indol-2-yl)vinyl)-1H-indole] | – | MIC [2]: > 64 µg/mL; IC50 [1, 3]: 4.1 nM
Brc1ccc2cc(CCc3ccccc3)[nH]c2c1 [Compound 37a, 6-bromo-2-phenethyl-1H-indole] | – | inhibition at 4 µM ([1]; read-out: % inhibition (IC50)): 56%
Brc1ccc(CCc2cc3ccc(Br)cc3[nH]2)cc1 [Compound 37b, 6-bromo-2-(4-bromophenethyl)-1H-indole] | 187 | –
[N-]=[N+]=Nc1ccc2cc(-c3cc4ccc(Br)cc4[nH]3)[nH]c2c1 [Compound 88, 6-azido-6′-bromo-1H,1′H-2,2′-biindole] | 22.6 | –
FC(F)(F)C1(c2ccc(-c3cc4ccc(Br)cc4[nH]3)cc2)NN1 [Compound 89, 6-Bromo-2-(4-(3-(trifluoromethyl)diaziridin-3-yl)phenyl)-1H-indole] | – | inhibition at 10 µM [1]: 84%
COC(=O)c1c(-c2cc3ccc(Br)cc3[nH]2)[nH]c2ccccc12 [Compound 90, methyl 6′-bromo-1H,1′H-[2,2′-biindole]-3-carboxylate] | 2.4 | –
FC(F)(F)C1(c2ccc(-c3[nH]c4cc(Br)ccc4c3Cl)cc2)N=N1 [Compound 92, 6-bromo-3-chloro-2-(4-(3-(trifluoromethyl)-3H-diazirin-3-yl)phenyl)-1H-indole] | 110 | –
[N-]=[N+]=Nc1ccc(-c2cc3ccc(Br)cc3[nH]2)cc1 [Compound 93, 2-(4-azidophenyl)-6-bromo-1H-indole] | 40.5 | –
FC(F)(F)C1(c2ccc(-c3cc4ccc(Br)cc4[nH]3)cc2)N=N1 [Compound 94, 6-bromo-2-(4-(3-(trifluoromethyl)-3H-diazirin-3-yl)phenyl)-1H-indole] | 78.3 | –
COc1ccc(/C=C/c2cc3ccc(Br)cc3[nH]2)cn1 [Compound 111, (E)-6-Bromo-2-(2-(6-methoxypyridin-3-yl)vinyl)-1H-indole] | > 1000 | –

Structure (SMILES) | IC50 [1] [nM] | other results
Cc1nc(/C=C/c2cc3ccc(Br)cc3[nH]2)co1 [Compound 112, (E)-4-(2-(6-Bromo-1H-indol-2-yl)vinyl)-2-methyloxazole] | > 100000 | –
Cc1csc(/C=C/c2cc3ccc(Br)cc3[nH]2)n1 [Compound 113, (E)-2-(2-(6-Bromo-1H-indol-2-yl)vinyl)-4-methylthiazole] | > 1000 | –
Cc1ccc(/C=C/c2cc3ccc(Br)cc3[nH]2)o1 [Compound 114, (E)-6-Bromo-2-(2-(5-methylfuran-2-yl)vinyl)-1H-indole] | > 1000 | –
Cc1ncc(/C=C/c2cc3ccc(Br)cc3[nH]2)s1 [Compound 115, (E)-5-(2-(6-Bromo-1H-indol-2-yl)vinyl)-2-methylthiazole] | > 1000 | –
Cc1ccc(/C=C/c2cc3ccc(Br)cc3[nH]2)s1 [Compound 116, (E)-6-Bromo-2-(2-(5-methylthiophen-2-yl)vinyl)-1H-indole] | > 1000 | –
Cc1csc(/C=C/c2cc3ccc(Br)cc3[nH]2)c1 [Compound 117, (E)-6-Bromo-2-(2-(4-methylthiophen-2-yl)vinyl)-1H-indole] | > 1000 | –
CC(=O)c1c(/C=C/c2ccc(Cl)cc2)[nH]c2cc(Br)ccc12 [Compound 122, (E)-1-(6-Bromo-2-(4-chlorostyryl)-1H-indol-3-yl)ethanone] | 100 to 1000 | –
Brc1ccc2cc(C#Cc3ccccn3)[nH]c2c1 [Compound 140, 6-Bromo-2-(pyridin-2-ylethynyl)-1H-indole] | > 1000 | –
COC(=O)c1c(C#Cc2ncc(Cl)cn2)[nH]c2cc(Br)ccc12 [Compound 143, Methyl 6-bromo-2-((5-chloropyrimidin-2-yl)ethynyl)-1H-indole-3-carboxylate] | < 50 | –
COc1ccc(C#Cc2cc3ccc(Br)cc3[nH]2)cn1 [Compound 144, 6-Bromo-2-((6-methoxypyridin-3-yl)ethynyl)-1H-indole] | > 1000 | –
COC(=O)c1c(C#Cc2cc3cc(Cl)ccc3[nH]2)[nH]c2cc(Br)ccc12 [Compound 145, Methyl 6-bromo-2-((5-chloro-1H-indol-2-yl)ethynyl)-1H-indole-3-carboxylate] | > 1000 | –
COc1ccc(/C=C/c2[nH]c3cc(Br)ccc3c2C(=O)O)nc1 [Compound 151, (E)-6-Bromo-2-(2-(5-methoxypyridin-2-yl)vinyl)-1H-indole-3-carboxylic acid] | > 1000 | –
Cn1c(-c2cc3ccccc3s2)nc2ccc(Br)cc21 [Compound 155, 2-(Benzo[b]thiophen-2-yl)-6-bromo-1-methyl-1H-benzo[d]imidazole] | 100 to 1000 | –
Cn1c(-c2cc3ccccc3s2)nc2cc(Br)ccc21 [Compound 156, 2-(Benzo[b]thiophen-2-yl)-5-bromo-1-methyl-1H-benzo[d]imidazole] | > 1000 | –
COc1ccc(/C=C/c2[nH]c3cc(Br)ccc3c2C(=O)C(F)(F)F)nc1 [Compound 172, (E)-1-(6-Bromo-2-(2-(5-methoxypyridin-2-yl)vinyl)-1H-indol-3-yl)-2,2,2-trifluoroethanone] | > 1000 | –
O=C(c1c(/C=C/c2cn3ccccc3n2)[nH]c2cc(Br)ccc12)C(F)(F)F [Compound 176, (E)-1-(6-Bromo-2-(2-(imidazo[1,2-a]pyridin-2-yl)vinyl)-1H-indol-3-yl)-2,2,2-trifluoroethanone] | > 1000 | –

From US20170216252A1, “ANTI-BACTERIAL PYRUVATE KINASE MODULATOR COMPOUNDS, COMPOSITIONS, USES AND METHODS” (SIMON FRASER UNIVERSITY, priority 2014, published 2017)
